{"source": "patent US12491248B2", "about": "“Method for generating immunoregulatory cells in a blood-derived sample” (Therakos Development Limited, priority 2019, dated 2025)", "key": {"[1]": {"test_system": "B16 melanoma cells", "assay": "Survival of melanoma-bearing mice treated with anti-PD1", "format": "in vivo", "conditions": "combined with anti-PD1, compared to anti-PD1 only", "protocol": "FIG. 7: • (a) Treatment schedule: Mice were injected iv with B16 melanoma cells and afterwards treated with anti-PD1, prednisolone or ECP as indicated. • (b) Survival of mice injected iv with B16 melanoma cells and afterwards treated with anti-PD1, prednisolone or ECP.\nTo understand if the immunomodulatory effect of ECP was connected to a loss of anti-tumor activity we next treated melanoma bearing mice with anti-PD1 alone or in combination with the glucocorticoid prednisolone or ECP (FIG. 7A). We observed that prednisolone reduced the survival of melanoma-bearing mice compared to the group treated with anti-PD1 only (FIG. 7B)."}, "[2]": {"test_system": "immune checkpoint inhibitor-related colitis", "assay": "Immunosuppressive drug treatment of the patient's colitis episodes before ECP", "format": "in vivo, human", "protocol": "(§1) A patient was treated with ipilimumab and nivolumab for metastatic melanoma. […] Colitis was diagnosed based on macroscopic mucosal ulcerations and intraepithelial apoptosis and crypt loss identified in the biopsy (FIG. 1a,b). While dermatitis, thyroiditis and hepatitis resolved after stopping ipilimumab/nivolumab and corticosteroid treatment, the patient experienced three colitis episodes within the next 20 weeks (CTC-AE II-III°). These were treated with corticosteroids (in total 23 weeks prior to ECP), infliximab (2 single doses 18 and 15 weeks prior to ECP) and cyclosporine (14 weeks prior to ECP, FIG. 1a and Table 1).\nThe patient had their first episode of colitis 20 weeks prior to the start of ECP. At that time point they had been treated for 3 weeks with steroids for their previous immune checkpoint inhibitor-related hepatitis, thyroiditis and dermatitis. The colitis occurred during tapering of the steroids. Therefore, the steroid dose was increased and due to an insufficient response, infliximab 5 mg/kg BW was administered once. […] Upon steroid tapering, the patient experienced their second episode of colitis, 16 weeks prior to begin of ECP. They were treated with an increased dose of methylprednisolone and a second dose of infliximab. The diarrhea was refractory to this therapy and consequently cyclosporine A was added. […] Here, ECP treatment was initiated. […]"}, "[3]": {"assay": "Adverse events of ipilimumab and nivolumab in the metastatic melanoma patient", "format": "in vivo, human", "conditions": "after two doses of ipilimumab and nivolumab", "protocol": "as §1"}}, "data": [{"compound": "C[C@]12C=CC(=O)C=C1CC[C@@H]1[C@@H]2[C@@H](O)C[C@@]2(C)[C@H]1CC[C@]2(O)C(=O)CO", "note": "[prednisolone]", "values": [{"measurement": "survival of melanoma-bearing mice", "setting": "[1]", "value": "reduced"}]}, {"compound": "infliximab: anti-TNF antibody", "values": [{"measurement": "diarrhea, second episode", "setting": "[2]; increased dose of methylprednisolone and a second dose of infliximab", "value": "refractory"}, {"measurement": "colitis symptoms, first episode", "setting": "[2]; infliximab 5 mg/kg BW once, added to increased steroid dose", "value": "symptoms resolved"}]}, {"compound": "ipilimumab: antagonistic antibody directed against CTLA4", "values": [{"measurement": "immune-related adverse events developed", "setting": "[3]", "value": "dermatitis, thyroiditis, hepatitis and colitis"}]}, {"compound": "nivolumab: antagonistic anti-PD-1 antibody", "values": [{"measurement": "immune-related adverse events developed", "setting": "[3]", "value": "dermatitis, thyroiditis, hepatitis and colitis"}]}]}
